Reference: paper PMC11456921 (RSC Advances, 2024)
In brackets after ≈: the same amount, converted by molar mass. Values belong to the compound of their own block, whether it stands above or below them.

Key:
[1] = test system: HEp-2 human laryngeal carcinoma cell line; assay: In vitro anti-proliferative assay, SRB method, HEp-2; type: cell-based; conditions: for IC50: Homo sapiens, HEp-2, 48 h, read-out: IC50 against HEp-2; for HEp-2 (% inhibition): single concentration 100 μg mL^−1, 48 h, SRB, mean ± SD
CDK2/cyclin A = CDK2/cyclin A (Homo sapiens, UniProt P24941); type: biochemical
GSK3β = GSK3β (Homo sapiens, UniProt P49841); type: biochemical
[2] = test system: MCF-7 human breast carcinoma cell line; assay: In vitro anti-proliferative assay, sulforhodamine-B; type: cell-based; conditions: single concentration 100 μg mL^−1, 48 h, SRB; mean ± SD
[3] = test system: Vero normal African green monkey kidney cell line; assay: In vitro anti-proliferative assay, SRB method, normal Vero cells; type: cell-based; conditions: single concentration 100 μg mL^−1, 48 h, mean ± SD
HEp-2 cells [4] = assay: Total nitrate/nitrite; type: cell-based, human; conditions: HEp-2, treated with IC50 for 48 h
HEp-2 cells [5] = assay: Reduced glutathione; type: cell-based, human; conditions: HEp-2, treated with IC50 for 48 h
[6] = test system: HepG2 human hepatocellular carcinoma cell line; assay: In vitro anti-proliferative assay, SRB method, HepG2; type: cell-based
HepG2 cells [7] = assay: Total nitrate/nitrite; type: cell-based, human; conditions: HepG2, treated with IC50 for 48 h
HepG2 cells [8] = assay: Reduced glutathione; type: cell-based, human; conditions: HepG2, treated with IC50 for 48 h
HepG2 cells [9] = assay: Cell cycle analysis by flow cytometry; type: cell-based, human; conditions: HepG2, 9.5 μg mL^−1 (IC50), 24 h
HepG2 cells [10] = assay: Apoptosis detection, annexin V-FITC/PI flow cytometry; type: cell-based, human; conditions: HepG2, 9.5 μg mL^−1 (IC50), 24 h; DMSO control 1.18%

GSK3β, sequence (P49841 whole entry): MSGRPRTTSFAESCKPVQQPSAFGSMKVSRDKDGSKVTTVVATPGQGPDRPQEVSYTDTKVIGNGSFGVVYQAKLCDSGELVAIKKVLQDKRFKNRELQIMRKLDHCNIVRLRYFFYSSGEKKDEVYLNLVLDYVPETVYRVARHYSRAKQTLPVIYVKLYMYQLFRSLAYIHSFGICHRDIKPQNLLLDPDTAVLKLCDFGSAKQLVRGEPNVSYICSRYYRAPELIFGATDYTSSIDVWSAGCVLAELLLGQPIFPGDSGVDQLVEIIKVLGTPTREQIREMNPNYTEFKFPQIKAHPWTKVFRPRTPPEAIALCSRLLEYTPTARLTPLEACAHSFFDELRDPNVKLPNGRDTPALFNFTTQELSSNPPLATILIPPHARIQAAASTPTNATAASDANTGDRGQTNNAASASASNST

IC50 [1]: 7.5 µg/mL (≈ 38.6 µM) | IC50 (CDK2/cyclin A): 16700 nM | Roscovitine inhibitory activity against CDK2/cyclin A relative to the compound (CDK2/cyclin A; from IC50 values of Table 2): more than 3.5 times | IC50 (GSK3β): 2250 nM
SMILES: C/C(=N\NC(N)=S)c1ccccn1 [1a, (E)-2-(1-(pyridin-2-yl)ethylidene)hydrazine-1-carbothioamide]
HEp-2 (% inhibition) [1]: 79.91 ± 0.7% | GSK3β inhibitory activity compared with CHIR-99021 (GSK3β; from IC50 values of Table 2): the reference drug showing nearly six times its inhibitory activity

SMILES: CCn1c(C)c(C(C)=O)s/c1=N/N=C(\C)c1ccccn1 [3b, 1-((E)-3-Ethyl-4-methyl-2-(((E)-1-(pyridin-2-yl)ethylidene)hydrazono)-2,3-dihydrothiazol-5-yl)ethan-1-one]
MCF-7 (% inhibition) [2]: 73.52 ± 1.6%

SMILES: C/C(=N\N=C1/NC(=O)C(C)S1)c1ccccn1 (stereo not shown) [7a, (E)-5-Methyl-2-(((E)-1-(pyridin-2-yl)ethylidene)hydrazono)thiazolidin-4-one]
MCF-7 (% inhibition) [2]: 72.79 ± 1.3%

IC50 [1]: 5.9 µg/mL (≈ 21.4 µM) | IC50 (CDK2/cyclin A): 2440 nM | Stronger inhibitory activity against CDK2/cyclin A compared with roscovitine (CDK2/cyclin A; from IC50 values of Table 2): 1.3 fold | IC50 (GSK3β): 485 nM
SMILES: CC(=O)C1S/C(=N/N=C(\C)c2ccccn2)NC1=O (stereo not shown) [8a, (E)-5-Acetyl-2-(((E)-1-(pyridin-2-yl)ethylidene)hydrazono)thiazolidin-4-one]
HEp-2 (% inhibition) [1]: 78.67 ± 2.5% | Vero (% inhibition) [3]: 44.24 ± 2.8% | Increase of NOx level compared to untreated cells (HEp-2 cells [4]): 19% | Reduction in GSH content compared to untreated cells (HEp-2 cells [5]): 14%

SMILES: CCN1C(=O)/C(=C\c2ccc(F)cc2)S/C1=N/N=C(\C)c1ccccn1 [9b, (E)-3-Ethyl-5-((E)-4-fluorobenzylidene)-2-(((E)-1-(pyridin-2-yl)ethylidene)hydrazono)thiazolidin-4-one]
MCF-7 (% inhibition) [2]: 70.58 ± 1.8%

SMILES: C/C(=N\N=C1/NC(=O)/C(=C\c2ccc(Cl)cc2)S1)c1ccccn1 [10a, (E)-5-((E)-4-Chlorobenzylidene)-2-(((E)-1-(pyridin-2-yl)ethylidene)hydrazono)thiazolidin-4-one]
MCF-7 (% inhibition) [2]: 71.32 ± 3.4%

IC50 ([6]; Homo sapiens, HepG2, 48 h, read-out: IC50 against HepG2): 9.5 µg/mL (≈ 27.1 µM) | IC50 (CDK2/cyclin A): 1130 nM | Stronger inhibitory activity against CDK2/cyclin A compared with roscovitine (CDK2/cyclin A; from IC50 values of Table 2): 2.2 fold | IC50 (GSK3β): 337 nM
SMILES: C/C(=N\N=c1/[nH]c(C)c(/N=N/c2ccc(C)cc2)s1)c1ccccn1 [13a, (E)-4-Methyl-2-(((E)-1-(pyridin-2-yl)ethylidene)hydrazono)-5-((E)-p-tolyldiazenyl)-2,3-dihydrothiazole]
HepG2 (% inhibition) ([6]; single concentration 100 μg mL^−1, 48 h, SRB, mean ± SD): 76.56 ± 1.3% | Vero (% inhibition) [3]: 41.81 ± 2.3% | Increase of NOx level compared to untreated cells (HepG2 cells [7]): 25% | Reduction in GSH level compared to untreated cells (HepG2 cells [8]): 33% | Cells in G0–G1 phase (%DIP G1) (HepG2 cells [9]): 59.62% | Necrotic cells (HepG2 cells [10]): 3.25%
